Reference: PubChem BioAssay (NCI)
“And” between values parts separate entries of the source, which are not always exact repeats. Equal entries are not always repeated.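 Dose response: 5 concentrations. Exposure: 48 h. Format: 96-well plates. Endpoint: linear interpolation; highest concentration if not reached. Abbreviation: GI50, concentration required for 50% inhibition of growth. TGI: total growth inhibition.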

Legend:
Test in all cases: inhibition of tumour cell growth, NCI panel, 48 h
[1] = test system: HOP-62 NSCLC
[2] = test system: DLD-1 colon
[3] = test system: CAKI-1 renal
[4] = test system: SF-295 CNS
[5] = test system: M19-MEL melanoma
[6] = test system: NCI-H522 lung
[7] = test system: MOLT-4 leukemia
[8] = test system: HCT-116 colon
[9] = test system: HOP-92 NSCLC
[10] = test system: HS 578T breast

O=C1c2ccccc2C2(O)c3cc4ccccc4cc3OC12O (configuration not stated)
TGI [1]: > 100 µM
TGI [2]: > 100 µM
TGI [3]: > 100 µM
TGI [4]: > 100 µM
TGI [5]: > 100 µM
TGI [6]: > 100 µM
TGI [7]: > 100 µM
TGI [8]: > 100 µM
TGI [9]: 80.4 µM

CC(=O)n1c2c(c(=O)n1-c1ccccc1)S(=O)CCC2 (configuration not stated)
TGI [1]: 28.2 µM
TGI [2]: > 100 µM
TGI [3]: > 100 µM
TGI [4]: > 100 µM
TGI [5]: > 100 µM
TGI [6]: 16.3 µM
TGI [7]: 6.9 µM
TGI [8]: > 100 µM

CC1=C2CCCC2=C/C(=N/Nc2ccc([N+](=O)[O-])cc2[N+](=O)[O-])CC1
TGI [1]: > 100 µM
TGI [2]: > 100 µM
TGI [3]: > 100 µM
TGI [4]: > 100 µM
TGI [5]: > 100 µM
TGI [6]: > 100 µM
TGI [7]: > 100 µM
TGI [8]: > 100 µM
TGI [9]: > 100 µM

O=[N+]([O-])c1ccc(-n2nnc(C3=NCCN3)c2-c2ccc(Cl)cc2)cc1
TGI [1]: > 100 µM
TGI [2]: > 100 µM
TGI [3]: > 100 µM
TGI [4]: > 100 µM
TGI [5]: > 100 µM
TGI [6]: > 100 µM
TGI [7]: > 100 µM
TGI [8]: > 100 µM
TGI [9]: > 100 µM

O=c1n(-c2ccccc2)c(=O)n2n1C1C=CC2C2C(C1)C2(Cl)Cl (configuration not stated)
TGI [1]: > 100 µM
TGI [2]: > 100 µM
TGI [3]: > 100 µM
TGI [4]: > 100 µM
TGI [5]: > 100 µM
TGI [6]: > 100 µM
TGI [7]: > 100 µM
TGI [8]: > 100 µM

O=C(O)CSc1n[nH]c(-c2ccccc2)n1
TGI [1]: > 100 µM
TGI [2]: > 100 µM
TGI [3]: > 100 µM
TGI [4]: > 100 µM
TGI [5]: > 100 µM
TGI [6]: > 100 µM
TGI [7]: > 100 µM

CCc1c(OC(C)=O)c2c(NC3OC(COC(C)=O)C(OC(C)=O)C(OC(C)=O)C3OC(C)=O)nc(OC)nc2oc1=O (configuration not stated)
TGI [1]: > 100 µM
TGI [2]: > 100 µM
TGI [3]: > 100 µM
TGI [4]: > 100 µM
TGI [5]: > 100 µM
TGI [7]: > 100 µM
TGI [8]: > 100 µM

Cc1c(Cl)cccc1N1C(=O)C(Cl)=C(Cl)C1=O
TGI [1]: > 100 µM
TGI [2]: > 100 µM
TGI [3]: > 80.9 µM
TGI [4]: > 100 µM
TGI [5]: > 100 µM
TGI [6]: 27.9 µM
TGI [7]: 28.1 µM
TGI [8]: > 100 µM
TGI [9]: > 100 µM

N=c1ccn2c(n1)OC1C(O)C(CO)OC12 (configuration not stated)
GI50 [1]: 0.326 µM
TGI [1]: 130 µM
GI50 [10]: > 100 µM
TGI [10]: > 1000 µM
TGI [2]: > 1000 µM
GI50 [3]: 0.394 µM
TGI [3]: 260 µM and > 100 µM
GI50 [4]: 5.93 µM
TGI [4]: 359 µM and > 100 µM
TGI [5]: > 1000 µM
GI50 [6]: > 100 µM
TGI [6]: > 1000 µM
GI50 [7]: 0.016 µM
GI50 [8]: 0.164 µM
TGI [8]: > 1000 µM
GI50 [9]: 8.2 µM and 19.9 µM
TGI [9]: > 811 µM

Cc1ccc(Cn2c(C)nc3c2C(=O)c2ccccc2C3=O)cc1
TGI [1]: 42.1 µM
TGI [2]: > 100 µM
TGI [4]: 42.9 µM
TGI [5]: 21.1 µM
TGI [6]: 18.1 µM
TGI [7]: > 100 µM
TGI [8]: 16.3 µM

CCC1C2C=CC(CC2)N1S(=O)(=O)c1ccc(C)cc1 (configuration not stated)
TGI [1]: 76.3 µM
TGI [3]: > 100 µM
TGI [4]: > 100 µM
TGI [5]: > 100 µM
TGI [6]: 61.5 µM
TGI [7]: > 100 µM
TGI [8]: > 100 µM

O=C(N/N=C1/C(=O)N(c2ccc(Cl)cc2Cl)C(=O)C(=O)C1c1nc2ccccc2o1)c1ccccc1O (configuration not stated)
TGI [1]: 75.2 µM
TGI [2]: > 100 µM
TGI [3]: > 100 µM
TGI [5]: > 100 µM
TGI [6]: 87.7 µM
TGI [7]: > 100 µM
TGI [8]: > 100 µM
TGI [9]: 93.5 µM

COc1ccc(/C(=N\NC(=O)C(N)=O)C(c2ccc(OC)cc2)C2(O)C(=O)Nc3c(Cl)cccc32)cc1 (configuration not stated)
TGI [1]: > 100 µM
TGI [2]: > 100 µM
TGI [4]: > 100 µM
TGI [5]: > 100 µM
TGI [7]: > 100 µM
TGI [8]: > 100 µM
TGI [9]: > 100 µM

CCOC(=O)C(C)(C)Oc1ccc2c(C)c(-c3ccc(Cl)cc3)c(=O)oc2c1
TGI [1]: > 100 µM
TGI [2]: > 100 µM
TGI [4]: > 100 µM
TGI [5]: > 100 µM
TGI [7]: > 100 µM
TGI [8]: > 100 µM

CC(=O)O[C@H]1CCC2[C@@H]3CCC4=C(O)c5nocc5C[C@]4(C)C3CC[C@@]21C (some centres not stated)
TGI [1]: > 100 µM
TGI [3]: > 100 µM
TGI [4]: > 100 µM
TGI [5]: > 100 µM
TGI [6]: > 100 µM
TGI [7]: > 100 µM
TGI [8]: > 100 µM
TGI [9]: > 100 µM

O=C(NC(=O)c1cn(CCNCCO)c(=O)[nH]c1=O)OCc1ccccc1
TGI [1]: > 100 µM
TGI [2]: > 100 µM
TGI [3]: > 100 µM
TGI [4]: > 100 µM
TGI [5]: > 100 µM
TGI [6]: > 100 µM
TGI [7]: > 100 µM
TGI [8]: > 100 µM
TGI [9]: > 100 µM

COc1ccc(-c2cc(-c3ccccc3)c(C#N)c(=O)n2C2OC(CO)C(O)C(O)C2O)cc1 (configuration not stated)
TGI [1]: > 100 µM
TGI [2]: > 100 µM
TGI [4]: > 100 µM
TGI [5]: > 100 µM
TGI [6]: > 100 µM
TGI [7]: > 100 µM
TGI [8]: > 100 µM
